The record followed here is ChEMBL document CHEMBL5325507, “A TNF-α blocking peptide that reduces NF-κB and MAPK activity for attenuating inflammation” (Bioorg Med Chem, 2023).

Data set [1] concerns L929. Briefly: Cytotoxicity against TNF-alpha induced mouse L929 cells assessed as increase in cell survival pretreated for 12 hrs followed by TNF-alpha induction and measured after 20 hrs by MTT assay. The data set is classed as toxicity, cell-based. Conditions: l929, 32 h. (In general: Formazan colour is commonly taken as a measure of viable cells.)
Data set [2] concerns the target T1, Tumor necrosis factor receptor superfamily member 1A (Homo sapiens, UniProt P19438).
T1 sequence (P19438 whole entry): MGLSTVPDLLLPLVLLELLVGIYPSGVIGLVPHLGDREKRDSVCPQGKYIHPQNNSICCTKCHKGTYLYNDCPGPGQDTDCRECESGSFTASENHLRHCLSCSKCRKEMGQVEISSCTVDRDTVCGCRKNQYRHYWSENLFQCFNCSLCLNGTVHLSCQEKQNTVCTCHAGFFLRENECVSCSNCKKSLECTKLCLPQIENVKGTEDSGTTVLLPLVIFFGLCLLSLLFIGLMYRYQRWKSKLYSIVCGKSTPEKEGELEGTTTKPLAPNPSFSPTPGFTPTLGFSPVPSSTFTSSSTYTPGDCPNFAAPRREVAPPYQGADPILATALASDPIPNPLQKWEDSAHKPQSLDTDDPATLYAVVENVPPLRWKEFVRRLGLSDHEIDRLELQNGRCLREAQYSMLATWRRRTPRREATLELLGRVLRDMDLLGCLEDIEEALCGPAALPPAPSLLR
Description: Competitive Inhibition of TNF-alpha binding to human recombinant TNFR1 incubated for 1 hr by ELISA analysis. (In general: In an ELISA, binding on a coated surface is turned into a signal by an enzyme label.)

The target in data set [3] is T2, Tumor necrosis factor receptor superfamily member 1B (Homo sapiens, UniProt P20333).
T2 sequence (P20333 whole entry): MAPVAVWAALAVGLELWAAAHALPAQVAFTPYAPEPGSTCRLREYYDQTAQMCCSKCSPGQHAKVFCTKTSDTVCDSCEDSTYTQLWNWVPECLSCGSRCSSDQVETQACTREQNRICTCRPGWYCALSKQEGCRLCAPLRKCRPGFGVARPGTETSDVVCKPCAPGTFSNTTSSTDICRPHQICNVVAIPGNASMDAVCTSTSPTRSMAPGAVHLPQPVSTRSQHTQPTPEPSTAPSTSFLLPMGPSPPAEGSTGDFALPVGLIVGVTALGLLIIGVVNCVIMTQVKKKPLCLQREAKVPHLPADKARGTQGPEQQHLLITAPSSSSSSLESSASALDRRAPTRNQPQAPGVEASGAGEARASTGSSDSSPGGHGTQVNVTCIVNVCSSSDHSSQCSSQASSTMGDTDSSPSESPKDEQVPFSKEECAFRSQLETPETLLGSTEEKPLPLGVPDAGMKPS
Briefly: Competitive Inhibition of TNF-alpha binding to human recombinant TNFR2 incubated for 1 hr by ELISA analysis.

For data set [4], the system named is L929. Description: Cytotoxicity against TNF-alpha induced mouse L929 cells assessed as increase in cell survival pretreated for 12 hrs followed by TNF-alpha induction and measured after 18 to 20 hrs by MTT assay. Format: toxicity, cell-based.
For data set [5], the system named is HT-29. Description: Antiinflammatory activity in human HT-29 cells assessed as downregulation of TNF-alpha-induced IL-8 mRNA expression incubated for 6 hrs by RT-PCR analysis. The data set is classed as functional, cell-based. Conditions: dose 15-20 µM.
The test system of data set [6] is HT-29. Description: Antiinflammatory activity in human HT-29 cells assessed as downregulation of TNF-alpha-induced ICAM mRNA expression incubated for 6 hrs by RT-PCR analysis. The data set is classed as functional, cell-based. Conditions: dose 15-20 µM.
The subject of data set [7] is HT-29. Briefly: Antiinflammatory activity in human HT-29 cells assessed as downregulation of TNF-alpha-induced IL-1beta mRNA expression incubated for 6 hrs by RT-PCR analysis. Format: functional, cell-based. Conditions: dose 15-20 µM.
Data set [8] concerns HT-29. Briefly: Antiinflammatory activity in human HT-29 cells assessed as downregulation of TNF-alpha-induced IFN-gamma mRNA expression incubated for 6 hrs by RT-PCR analysis. The data set is classed as functional, cell-based. The settings on record: dose 15-20 µM.
The test system of data set [9] is HEK293-A. Briefly: Inhibition of TNF-alpha induced MAPK activation in HEK293-A cells assessed as decrease in phosphorylated p38 expression at 15 to 120 uM incubated for 15 mins by Western blot analysis. Conditions: Homo sapiens, dose 15-120 µM. The data set is classed as cell-based. Background: Immunoblotting shows a protein as a band on a membrane.
Data set [10] relates to HEK293-A. Briefly: Inhibition of TNF-alpha induced MAPK activation in HEK293-A cells assessed as decrease in phosphorylated ERK expression at 15 to 120 uM incubated for 15 mins by Western blot analysis. The data set is classed as cell-based. The settings on record: Homo sapiens, dose 15-120 µM.
Data set [11] concerns HEK293-A. Description: Inhibition of TNF-alpha induced MAPK activation in HEK293-A cells assessed as decrease in phosphorylated JNK expression at 15 to 120 uM incubated for 15 mins by Western blot analysis. Format: cell-based. Conditions: Homo sapiens, dose 15-120 µM.
The target of data set [12] is T3, Nuclear factor NF-kappa-B complex (Homo sapiens) (UniProt Q00653+P19838+Q04206). Description: Inhibition of TNF-alpha induced NF-kappaB activation in HEK293-A cells assessed as decrease in phosphorylated IkappaB level at 15 to 120 uM incubated for 15 mins by Western blot analysis. Format: cell-based. Conditions: dose 15-120 µM.
The subject of data set [13] is HEK293-A. Description: Inhibition of TNF-alpha induced MAPK activation in HEK293-A cells incubated for 15 mins by Western blot analysis. The data set is classed as cell-based. The settings on record: Homo sapiens, dose 15-120 µM.
The subject of data set [14] is HEK293-A. Description: Inhibition of TNF-alpha induced MAPK activation in HEK293-A cells at 15 to 120 uM by Western blot analysis. The data set is classed as cell-based. Conditions: Homo sapiens, dose 15-120 µM, time 15.0 min, TDE = time-dependent effect.
The target of data set [15] is T3, Nuclear factor NF-kappa-B complex (Homo sapiens). Description: Inhibition of TNF-alpha induced NF-kappaB activation in HEK293-A cells incubated for 15 mins by Western blot analysis. The data set is classed as cell-based. The settings on record: dose 15-120 µM.
The target is the same in data set [16]. Description: Inhibition of TNF-alpha induced NF-kappaB activation in HEK293-A cells at 15 to 120 uM by Western blot analysis. Format: cell-based. The settings on record: dose 15-120 µM, time 15.0 min, TDE = time-dependent effect.
In data set [17] the target is Transcription factor p65 (Homo sapiens) (UniProt Q04206). Briefly: Inhibition of TNF-alpha induced NF-kappaB p65 nuclear translocation in human HaCaT cells at 30 to 120 uM incubated for 10 mins DAPI staining based fluorescence microscopic analysis. Format: cell-based. The settings on record: dose 30-120 µM.
The target is the same in data set [18]. Description: Inhibition of TNF-alpha induced NF-kappaB p65 nuclear translocation in human HaCaT cells at 120 uM incubated for 10 mins DAPI staining based fluorescence microscopic analysis. The data set is classed as cell-based.

pEC50, pIC50: −log10 of the molar value. The source made the active and inactive calls. The calls are words filed in the database; no cut-off is given here. Numbered stars: 1 amine (or outer) side, 2 acyl side, 3 side chain; on linkers, the order of the positions; unused ones are H or OH. Bridge positions count the residues as written; N and C are the ends. Square brackets hold non-standard residues; d marks the D form. Peptide text beside a SMILES is read from it. I, II: the chains in the order shown. Actinocin(9to1) = Cc1c2oc3c(C)ccc(C(=O)[*:1])c3nc-2c(C(=O)[*:2])c(N)c1=O; NMeV = CN[C@H](C(=O)O)C(C)C; Sar = CNCC(=O)O

T3 sequence (P19838 whole entry, looked up): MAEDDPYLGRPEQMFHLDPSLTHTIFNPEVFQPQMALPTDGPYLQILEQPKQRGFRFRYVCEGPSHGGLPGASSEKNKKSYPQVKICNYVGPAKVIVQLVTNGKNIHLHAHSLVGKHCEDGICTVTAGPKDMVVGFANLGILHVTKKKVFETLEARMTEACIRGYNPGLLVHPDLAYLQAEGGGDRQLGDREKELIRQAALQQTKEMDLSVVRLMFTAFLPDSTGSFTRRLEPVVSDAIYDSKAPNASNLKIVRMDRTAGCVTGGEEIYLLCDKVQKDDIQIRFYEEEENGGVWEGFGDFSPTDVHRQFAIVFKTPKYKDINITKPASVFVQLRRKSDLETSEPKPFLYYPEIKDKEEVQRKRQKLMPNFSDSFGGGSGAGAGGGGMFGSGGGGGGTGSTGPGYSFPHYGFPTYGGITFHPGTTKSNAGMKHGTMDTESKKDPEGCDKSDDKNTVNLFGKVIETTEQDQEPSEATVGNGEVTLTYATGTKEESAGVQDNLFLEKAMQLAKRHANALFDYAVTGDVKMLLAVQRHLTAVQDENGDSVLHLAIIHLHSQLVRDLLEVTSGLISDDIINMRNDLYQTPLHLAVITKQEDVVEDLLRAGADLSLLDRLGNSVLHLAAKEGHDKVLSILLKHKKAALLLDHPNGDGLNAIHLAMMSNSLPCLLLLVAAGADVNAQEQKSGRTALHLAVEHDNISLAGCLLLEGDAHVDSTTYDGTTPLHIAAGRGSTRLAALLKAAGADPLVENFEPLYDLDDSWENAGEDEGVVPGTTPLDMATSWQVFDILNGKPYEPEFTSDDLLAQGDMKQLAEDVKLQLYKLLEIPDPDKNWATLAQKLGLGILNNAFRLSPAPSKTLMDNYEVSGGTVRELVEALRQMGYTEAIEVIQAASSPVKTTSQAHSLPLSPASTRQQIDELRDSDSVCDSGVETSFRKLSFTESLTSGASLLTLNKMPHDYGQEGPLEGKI
T3 sequence (Q00653 whole entry, looked up): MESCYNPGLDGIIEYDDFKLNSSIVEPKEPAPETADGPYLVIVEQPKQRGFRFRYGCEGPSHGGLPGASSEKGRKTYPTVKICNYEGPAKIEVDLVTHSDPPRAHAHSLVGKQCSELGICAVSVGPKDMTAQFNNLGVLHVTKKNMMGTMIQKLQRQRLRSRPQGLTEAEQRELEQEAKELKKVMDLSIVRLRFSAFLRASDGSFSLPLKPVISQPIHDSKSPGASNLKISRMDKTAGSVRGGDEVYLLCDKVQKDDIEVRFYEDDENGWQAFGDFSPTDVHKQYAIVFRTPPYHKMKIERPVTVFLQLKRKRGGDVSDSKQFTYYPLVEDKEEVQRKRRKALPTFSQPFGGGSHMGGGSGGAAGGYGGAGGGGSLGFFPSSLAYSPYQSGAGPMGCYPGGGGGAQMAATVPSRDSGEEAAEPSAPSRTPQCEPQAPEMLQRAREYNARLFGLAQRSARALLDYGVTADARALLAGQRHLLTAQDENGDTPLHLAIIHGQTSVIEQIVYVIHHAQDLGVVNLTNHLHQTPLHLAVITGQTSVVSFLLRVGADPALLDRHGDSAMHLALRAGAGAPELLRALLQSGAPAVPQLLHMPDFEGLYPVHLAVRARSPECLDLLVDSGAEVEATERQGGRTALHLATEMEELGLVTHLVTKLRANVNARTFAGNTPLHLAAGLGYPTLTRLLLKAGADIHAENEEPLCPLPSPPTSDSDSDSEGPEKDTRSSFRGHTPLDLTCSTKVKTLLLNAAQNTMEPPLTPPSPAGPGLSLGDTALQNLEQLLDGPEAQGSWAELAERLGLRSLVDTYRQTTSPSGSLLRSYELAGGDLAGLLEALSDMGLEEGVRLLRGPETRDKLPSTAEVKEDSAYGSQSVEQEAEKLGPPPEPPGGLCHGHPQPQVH
T3 sequence (Q04206 whole entry, looked up): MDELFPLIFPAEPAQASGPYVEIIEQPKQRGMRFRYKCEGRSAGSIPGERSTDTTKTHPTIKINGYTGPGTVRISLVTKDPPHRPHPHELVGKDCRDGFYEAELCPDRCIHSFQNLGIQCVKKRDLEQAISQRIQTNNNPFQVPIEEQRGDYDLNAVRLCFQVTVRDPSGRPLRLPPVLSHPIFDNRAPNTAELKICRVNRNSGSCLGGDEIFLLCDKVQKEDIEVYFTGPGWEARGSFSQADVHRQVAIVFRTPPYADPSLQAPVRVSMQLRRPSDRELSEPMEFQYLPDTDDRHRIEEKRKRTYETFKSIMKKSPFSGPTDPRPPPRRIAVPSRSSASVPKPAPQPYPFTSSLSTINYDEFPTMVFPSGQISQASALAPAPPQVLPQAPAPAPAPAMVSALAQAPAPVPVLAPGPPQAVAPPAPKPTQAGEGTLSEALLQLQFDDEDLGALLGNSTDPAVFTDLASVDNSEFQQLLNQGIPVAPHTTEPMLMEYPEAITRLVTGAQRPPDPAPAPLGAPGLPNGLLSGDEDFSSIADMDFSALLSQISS
Chain of Transcription factor p65 (Homo sapiens) (Q04206 whole entry): as the sequence (Q04206 whole entry, looked up) above

Turning to `Cc1c2oc3c(C)ccc(C(=O)N[C@@H]4C(=O)N[C@H](C(C)C)C(=O)N5CCC[C@H]5C(=O)N(C)CC(=O)N(C)[C@@H](C(C)C)C(=O)O[C@@H]4C)c3nc-2c(C(=O)N[C@@H]2C(=O)N[C@H](C(C)C)C(=O)N3CCC[C@H]3C(=O)N(C)CC(=O)N(C)[C@@H](C(C)C)C(=O)O[C@@H]2C)c(N)c1=O` [DACTINOMYCIN] (I: T[dV]P[Sar][NMeV] / II: T[dV]P[Sar][NMeV]; ester I:1-I:C, II:1-II:C; linker I:N-II:N via Actinocin(9to1)), in the data set on L929 [1], the Activity is on record as 70%.
As for H-DEFHLELHLYQSW-OH, the results for the pEC50 in data set [2] and in [3] were 5.14 and 4.77, respectively. Moreover, the pIC50 with L929 [4] is 4.81. For the same compound, the Activity entry with HT-29 [5], in the data set with HT-29 [6], in the data set with HT-29 [7] and in the data set with HT-29 [8] was “Dose-Dependent Effect” in each case. Moreover, the inhibition result (in the data set with HEK293-A [9]; in the data set with HEK293-A [10]; in the data set on HEK293-A [11]; in data set [12]; in data set [17]; in data set [18]) was “Active” in each case. Further, the inhibition result in the data set on HEK293-A [13] is “Dose-Dependent Effect”; in the data set with HEK293-A [14] it was “Tde”; in data set [15] it was “Dose-Dependent Effect”; in [16] it was “Tde”.

What is called pEC50 is the EC50 on a negative log10 scale, so that one unit is a factor of ten. In general, pIC50 refers to the negative decadic logarithm of the IC50, by convention in mol/L.
